Results on one compound are retold here after ChEMBL document CHEMBL3864184, “Optimization of Highly Kinase Selective Bis-anilino Pyrimidine PAK1 Inhibitors” (ACS Med Chem Lett, 2016).

Data set [1] concerns the target PAK2 (serine/threonine-protein kinase PAK 2) (Homo sapiens, UniProt Q13177). The data set is described as follows: Inhibition of N-terminal 6His-tagged recombinant human PAK2 (3-end residues) expressed in expressed in Escherichia coli at 100 nM.
The target in data set [2] is Tyrosine-protein kinase Yes (Homo sapiens, UniProt P07947). The data set is described as follows: Inhibition of N-terminal 6His-tagged full length recombinant human YES expressed in baculovirus expression system.
The target in data set [3] is Tyrosine-protein kinase Fyn (Homo sapiens, UniProt P06241). The experiment in a line: Inhibition of N-Terminal His6-tagged full length recombinant human FYN expressed in baculovirus expression system at 100 nM.
The target of data set [4] is Sodium-dependent dopamine transporter (Homo sapiens) (UniProt Q01959). The experiment in a line: Activity at dopamine transporter (unknown origin) at <1 uM.
Data set [5] concerns the target Serine/threonine-protein kinase PAK 2 (Homo sapiens, UniProt Q13177).
Description: Binding affinity to human PAK2 (P151 to R525 residues) expressed in bacterial expression system by KINOMEscan assay
Data set [6] addresses Tyrosine-protein kinase Lyn (Homo sapiens, UniProt P07948). The experiment in a line: Inhibition of N-terminal his6-tagged recombinant full-length human LYN expressed in baculovirus infected Sf21 cells.
The target in data set [7] is T1, Muscarinic acetylcholine receptor M2 (Homo sapiens) (UniProt P08172).
T1 sequence (whole entry): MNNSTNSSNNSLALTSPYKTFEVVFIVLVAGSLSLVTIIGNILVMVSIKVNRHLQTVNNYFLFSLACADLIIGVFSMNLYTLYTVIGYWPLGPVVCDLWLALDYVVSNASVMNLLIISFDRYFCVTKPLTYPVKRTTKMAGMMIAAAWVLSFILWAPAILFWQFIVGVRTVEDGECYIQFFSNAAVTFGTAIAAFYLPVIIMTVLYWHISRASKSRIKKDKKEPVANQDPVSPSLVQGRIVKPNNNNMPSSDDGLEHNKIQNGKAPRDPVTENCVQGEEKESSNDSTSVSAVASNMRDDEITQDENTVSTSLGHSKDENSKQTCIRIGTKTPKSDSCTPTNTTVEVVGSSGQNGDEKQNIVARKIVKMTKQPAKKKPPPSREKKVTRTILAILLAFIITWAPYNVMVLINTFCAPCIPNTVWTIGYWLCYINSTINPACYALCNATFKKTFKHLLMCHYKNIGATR
The data set is described as follows: Activity at muscarinic acetylcholine receptor M2 (unknown origin) at <1 uM.

Data set [8] has as its target T2, Alpha-1B adrenergic receptor (Homo sapiens) (UniProt P35368).
T2 sequence (whole entry): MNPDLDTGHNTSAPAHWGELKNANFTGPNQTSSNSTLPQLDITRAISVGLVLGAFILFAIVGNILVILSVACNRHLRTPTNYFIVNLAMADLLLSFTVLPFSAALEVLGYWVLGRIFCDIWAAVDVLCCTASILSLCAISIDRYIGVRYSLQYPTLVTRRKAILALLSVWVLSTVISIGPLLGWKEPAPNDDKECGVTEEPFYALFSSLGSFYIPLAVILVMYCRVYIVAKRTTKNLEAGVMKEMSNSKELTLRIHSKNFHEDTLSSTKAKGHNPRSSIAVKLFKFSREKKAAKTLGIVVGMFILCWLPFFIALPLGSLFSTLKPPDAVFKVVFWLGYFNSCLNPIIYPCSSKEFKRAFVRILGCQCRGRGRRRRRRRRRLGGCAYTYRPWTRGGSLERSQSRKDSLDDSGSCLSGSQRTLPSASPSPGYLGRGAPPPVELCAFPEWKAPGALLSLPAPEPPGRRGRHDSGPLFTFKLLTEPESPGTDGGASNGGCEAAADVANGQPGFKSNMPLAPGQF
The experiment in a line: Activity at alpha-1B adrenergic receptor (unknown origin) at <1 uM.

Data set [9] has as its target Protein kinase C theta type (Homo sapiens, UniProt Q04759). The data set is described as follows: Inhibition of C-terminal 6His-tagged recombinant full length human PKCtheta expressed in fall armyworm Sf21 cells.

The source made the active and inactive calls. The calls are words filed in the database; no cut-off is given here.

PAK2 (serine/threonine-protein kinase PAK 2), sequence (Q13177 whole entry): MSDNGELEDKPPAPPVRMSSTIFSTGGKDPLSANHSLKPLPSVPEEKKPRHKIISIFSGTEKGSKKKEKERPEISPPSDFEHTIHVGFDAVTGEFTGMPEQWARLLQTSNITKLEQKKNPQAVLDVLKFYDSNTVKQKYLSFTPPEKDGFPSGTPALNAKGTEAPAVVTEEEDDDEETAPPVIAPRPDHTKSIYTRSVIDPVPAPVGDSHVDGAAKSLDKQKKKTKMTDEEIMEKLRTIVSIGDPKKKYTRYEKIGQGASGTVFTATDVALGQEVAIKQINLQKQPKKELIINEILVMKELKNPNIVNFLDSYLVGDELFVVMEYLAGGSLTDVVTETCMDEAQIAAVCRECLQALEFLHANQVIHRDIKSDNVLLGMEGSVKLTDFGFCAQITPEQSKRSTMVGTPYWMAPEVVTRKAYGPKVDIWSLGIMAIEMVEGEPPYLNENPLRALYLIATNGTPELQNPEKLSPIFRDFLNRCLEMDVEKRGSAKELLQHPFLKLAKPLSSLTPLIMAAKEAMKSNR
Serine/threonine-protein kinase PAK 2, sequence (Q13177 whole entry): as above
Sodium-dependent dopamine transporter (Homo sapiens), sequence (Q01959 whole entry): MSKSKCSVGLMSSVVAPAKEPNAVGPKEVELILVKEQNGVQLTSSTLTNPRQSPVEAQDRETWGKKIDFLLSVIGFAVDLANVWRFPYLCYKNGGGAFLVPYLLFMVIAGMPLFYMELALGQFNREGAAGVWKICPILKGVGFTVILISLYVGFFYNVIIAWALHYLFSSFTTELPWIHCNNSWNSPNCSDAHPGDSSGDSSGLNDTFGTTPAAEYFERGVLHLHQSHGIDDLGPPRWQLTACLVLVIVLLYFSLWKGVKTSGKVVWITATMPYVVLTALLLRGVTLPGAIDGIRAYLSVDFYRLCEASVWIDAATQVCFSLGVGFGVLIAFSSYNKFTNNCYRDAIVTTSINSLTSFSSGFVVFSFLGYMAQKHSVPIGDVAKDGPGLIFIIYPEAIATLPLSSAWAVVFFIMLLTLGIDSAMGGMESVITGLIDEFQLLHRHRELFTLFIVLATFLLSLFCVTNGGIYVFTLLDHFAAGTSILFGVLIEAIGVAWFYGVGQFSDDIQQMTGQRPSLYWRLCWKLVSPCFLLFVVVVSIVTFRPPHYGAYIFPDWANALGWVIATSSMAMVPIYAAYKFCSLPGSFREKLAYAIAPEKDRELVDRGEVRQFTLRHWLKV
Tyrosine-protein kinase Lyn, sequence (P07948 whole entry): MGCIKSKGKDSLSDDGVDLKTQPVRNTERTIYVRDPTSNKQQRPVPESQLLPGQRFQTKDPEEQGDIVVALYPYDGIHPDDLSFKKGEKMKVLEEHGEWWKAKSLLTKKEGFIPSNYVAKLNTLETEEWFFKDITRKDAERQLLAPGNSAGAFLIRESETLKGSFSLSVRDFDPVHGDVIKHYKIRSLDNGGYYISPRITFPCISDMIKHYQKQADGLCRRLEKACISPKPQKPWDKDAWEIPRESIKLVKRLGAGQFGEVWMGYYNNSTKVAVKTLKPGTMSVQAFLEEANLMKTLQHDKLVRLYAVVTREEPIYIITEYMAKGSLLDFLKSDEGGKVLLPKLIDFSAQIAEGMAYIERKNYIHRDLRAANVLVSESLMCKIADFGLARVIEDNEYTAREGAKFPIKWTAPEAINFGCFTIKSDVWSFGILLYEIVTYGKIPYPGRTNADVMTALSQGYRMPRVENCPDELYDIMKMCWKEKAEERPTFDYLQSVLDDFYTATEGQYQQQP
Tyrosine-protein kinase Fyn, sequence (P06241 2-537 limits assumed): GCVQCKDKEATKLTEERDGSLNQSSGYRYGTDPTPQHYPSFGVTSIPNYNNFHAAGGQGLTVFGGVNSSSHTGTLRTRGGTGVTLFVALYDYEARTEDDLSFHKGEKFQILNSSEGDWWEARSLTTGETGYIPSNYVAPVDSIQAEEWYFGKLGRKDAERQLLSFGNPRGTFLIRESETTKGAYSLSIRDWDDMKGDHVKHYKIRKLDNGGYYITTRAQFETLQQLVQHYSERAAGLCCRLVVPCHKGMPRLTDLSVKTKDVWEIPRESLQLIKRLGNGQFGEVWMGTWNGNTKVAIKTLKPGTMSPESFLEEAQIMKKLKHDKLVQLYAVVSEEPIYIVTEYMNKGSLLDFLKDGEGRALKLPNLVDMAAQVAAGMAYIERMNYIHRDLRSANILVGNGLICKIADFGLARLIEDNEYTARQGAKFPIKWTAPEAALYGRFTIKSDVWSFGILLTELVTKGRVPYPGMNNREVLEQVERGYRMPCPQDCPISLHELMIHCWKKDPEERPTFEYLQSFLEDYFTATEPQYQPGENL
Protein kinase C theta type, sequence (Q04759 whole entry): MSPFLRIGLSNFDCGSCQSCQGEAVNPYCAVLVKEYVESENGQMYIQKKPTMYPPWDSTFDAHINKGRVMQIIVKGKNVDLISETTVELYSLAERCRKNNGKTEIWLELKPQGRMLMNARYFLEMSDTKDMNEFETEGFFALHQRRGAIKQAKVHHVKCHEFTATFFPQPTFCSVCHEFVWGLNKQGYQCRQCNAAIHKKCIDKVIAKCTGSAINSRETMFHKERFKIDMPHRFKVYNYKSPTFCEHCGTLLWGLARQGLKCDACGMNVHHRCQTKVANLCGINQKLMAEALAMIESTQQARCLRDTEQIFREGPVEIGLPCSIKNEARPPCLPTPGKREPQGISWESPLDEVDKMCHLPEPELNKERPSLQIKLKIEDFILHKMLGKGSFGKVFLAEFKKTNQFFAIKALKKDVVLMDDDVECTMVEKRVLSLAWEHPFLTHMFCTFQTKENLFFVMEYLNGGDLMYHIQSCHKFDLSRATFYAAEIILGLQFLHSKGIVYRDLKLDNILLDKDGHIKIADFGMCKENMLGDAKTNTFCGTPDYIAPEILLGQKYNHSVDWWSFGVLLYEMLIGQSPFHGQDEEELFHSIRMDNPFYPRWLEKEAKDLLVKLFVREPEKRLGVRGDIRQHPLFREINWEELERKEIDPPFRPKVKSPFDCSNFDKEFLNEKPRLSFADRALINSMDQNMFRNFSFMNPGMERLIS
Tyrosine-protein kinase Yes, sequence (P07947 whole entry): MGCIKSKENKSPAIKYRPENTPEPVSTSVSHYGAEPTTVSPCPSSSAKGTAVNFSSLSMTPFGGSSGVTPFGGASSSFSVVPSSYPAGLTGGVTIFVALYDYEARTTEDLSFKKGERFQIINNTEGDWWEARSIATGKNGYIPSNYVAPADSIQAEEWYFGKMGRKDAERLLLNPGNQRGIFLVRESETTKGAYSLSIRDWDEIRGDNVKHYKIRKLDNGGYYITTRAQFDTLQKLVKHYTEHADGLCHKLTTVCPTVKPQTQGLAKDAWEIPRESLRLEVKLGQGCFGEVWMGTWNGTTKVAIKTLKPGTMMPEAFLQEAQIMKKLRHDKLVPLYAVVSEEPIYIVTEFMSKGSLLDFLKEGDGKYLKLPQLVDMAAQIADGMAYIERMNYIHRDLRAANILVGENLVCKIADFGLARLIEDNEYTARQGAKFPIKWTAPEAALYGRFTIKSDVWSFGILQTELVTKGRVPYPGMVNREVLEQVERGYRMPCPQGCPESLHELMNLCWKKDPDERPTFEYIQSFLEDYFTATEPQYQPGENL

As for `CCS(=O)(=O)c1cc(Nc2ncc(F)c(N(Cc3ccccc3C#N)c3cc(CO)ccc3C)n2)ccc1N1CCN(C)CC1`, the inhibition at 0.1 µM in data set [1] was 98%. Moreover, the IC50 in [2] came out at 4 nM; in data set [6], 31 nM; in [9], 7 nM. Also, the inhibition in data set [3] was determined as 87%. Moreover, the result in data set [4], in data set [7] and in data set [8] was Active. In addition, in data set [5], the affinity, expressed as Kd, was 0.32 nM.
